Our source for the TGI and GI50 values is PubChem BioAssay (NCI).

Among the test systems are UO-31 renal; ACHN renal; OVCAR-4 ovarian; CCRF-CEM leukemia; SK-OV-3 ovarian; U251 CNS; SNB-19 CNS; IGROV1 ovarian; UACC-62 melanoma.
Holding throughout (assay): NCI-60 cell line screen, 48 h

Structures are written as SMILES. Values joined by “and” are separate entries in the source; they are usually repeats but may differ in a detail not shown here. Equal entries are not always repeated.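 Cultured in 96-well plates, cells were exposed to test compound for 48 hours across five concentrations. The concentration for 50% growth inhibition is given as GI50. Definition used: TGI = concentration required for complete inhibition of growth.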

Take `COc1ccc(C)cc1-c1ccc(-c2cc(C)ccc2OC)o1`: the TGI in the test on UO-31 renal, in the test on ACHN renal, with OVCAR-4 ovarian, in the test on CCRF-CEM leukemia, in the test with SK-OV-3 ovarian and with U251 CNS was more than 100 µM throughout. Moreover, the TGI with SNB-19 CNS, in the test on IGROV1 ovarian and in the test on UACC-62 melanoma was more than 100 µM in each case.
As for `COc1cc(Br)c(C=Nc2cccc3ccc(OS(=O)(=O)c4ccc([N+](=O)[O-])cc4)cc23)cc1OC`, the TGI in the test on UO-31 renal, with ACHN renal, in the test on OVCAR-4 ovarian, with CCRF-CEM leukemia, with SK-OV-3 ovarian and in the test on U251 CNS was more than 100 µM each time. Besides, the TGI in the test with SNB-19 CNS, in the test with IGROV1 ovarian and in the test with UACC-62 melanoma was more than 100 µM throughout.
As to `O=C1C=C(c2ccccc2)NC1(c1ccccc1)c1cc(-c2ccccc2)[nH]c1-c1ccccc1` (configuration not stated), the TGI in the test with UO-31 renal, in the test with ACHN renal, with OVCAR-4 ovarian, in the test on CCRF-CEM leukemia, in the test on SK-OV-3 ovarian and with U251 CNS was more than 100 µM throughout. The TGI with SNB-19 CNS, in the test with IGROV1 ovarian and in the test on UACC-62 melanoma was more than 100 µM throughout.
For `C=CCN=C1NC(=O)C(CC(=O)Nc2ccc([N+](=O)[O-])cc2[N+](=O)[O-])S1` (configuration not stated), the TGI with UO-31 renal, in the test with ACHN renal, in the test on OVCAR-4 ovarian, in the test with CCRF-CEM leukemia, with SK-OV-3 ovarian and in the test on U251 CNS was more than 100 µM throughout. Moreover, the TGI in the test on SNB-19 CNS, in the test on IGROV1 ovarian and in the test on UACC-62 melanoma was more than 100 µM each time.
For `CC(C)CC1CC2C(=O)N(c3ccccc3)C(=O)C2c2[nH]c3ccccc3c21` (configuration not stated), the TGI in the test on UO-31 renal is 79.9 µM; in the test on ACHN renal it was more than 87.7 µM; in the test on OVCAR-4 ovarian it was more than 38.5 µM; in the test with CCRF-CEM leukemia it was more than 56.6 µM; in the test with SK-OV-3 ovarian, 43.6 µM; in the test with U251 CNS, more than 65 µM. Moreover, the TGI was more than 100 µM with SNB-19 CNS, 61.9 µM in the test with IGROV1 ovarian and more than 31.6 µM in the test on UACC-62 melanoma.
With `NC(=O)c1c(-c2ccccc2)c(-c2ccccc2)cc2c(=O)c3ccccc3[nH]c12`, the TGI with UO-31 renal is 80.2 µM; in the test with ACHN renal, 37.7 µM; in the test with OVCAR-4 ovarian, 30.4 µM; in the test on CCRF-CEM leukemia, more than 100 µM; with SK-OV-3 ovarian, 54.2 µM; in the test on U251 CNS, more than 100 µM. The results for the TGI with SNB-19 CNS, with IGROV1 ovarian and in the test with UACC-62 melanoma were 52.4 µM, 74.3 µM and 96.8 µM, respectively.
Turning to `COc1ccc(-c2cc(-c3ccco3)c(C#N)c(=O)n2C2OC(COC(C)=O)C(OC(C)=O)C(OC(C)=O)C2OC(C)=O)cc1` (configuration not stated), the GI50 was 40.1 µM and 16.5 µM in the test with UO-31 renal; > 100 µM and 31.1 µM in the test with ACHN renal; > 100 µM and 28.1 µM in the test with SK-OV-3 ovarian; > 100 µM and 16.1 µM in the test on U251 CNS; > 100 µM and 42.8 µM in the test on SNB-19 CNS; > 100 µM and 12.9 µM in the test with IGROV1 ovarian. In the test on UACC-62 melanoma, the GI50 was > 100 µM and 17.2 µM. In addition, the TGI in the test on UO-31 renal is > 100 µM and 51.7 µM; with ACHN renal, more than 100 µM; in the test with OVCAR-4 ovarian it was more than 100 µM; in the test with CCRF-CEM leukemia, more than 100 µM; in the test on SK-OV-3 ovarian, > 100 µM and 64.5 µM; in the test with U251 CNS it was > 100 µM and 34.7 µM. The TGI in the test on SNB-19 CNS was more than 100 µM; in the test on IGROV1 ovarian it was > 100 µM and 94.4 µM; with UACC-62 melanoma it was more than 100 µM.
Take `NNC(=O)C(=O)N/N=C1\CCCC1C(=O)CCC(=O)Nc1cccc(Cl)c1` (configuration not stated): the TGI in the test with UO-31 renal, in the test on ACHN renal, in the test with OVCAR-4 ovarian, in the test with CCRF-CEM leukemia, in the test with U251 CNS and with SNB-19 CNS was more than 100 µM throughout. The TGI in the test with IGROV1 ovarian and with UACC-62 melanoma was more than 100 µM throughout.
Take `COC(=O)N1C=CC2=C(C)C3Nc4ccccc4C3C(C)=C2C1` (configuration not stated): the TGI in the test with UO-31 renal was 3.88 µM; in the test on ACHN renal, 5.01 µM; in the test with OVCAR-4 ovarian, 11.3 µM; in the test on CCRF-CEM leukemia, 15.9 µM; in the test on SK-OV-3 ovarian, 8.71 µM; in the test with U251 CNS, more than 100 µM. In addition, the figures for the TGI with SNB-19 CNS, in the test with IGROV1 ovarian and in the test with UACC-62 melanoma were more than 100 µM, more than 100 µM and 6.89 µM, respectively.
Turning to `N/N=C1\C(=O)N(c2ccc(Cl)c(Cl)c2)C(=O)C1C(=O)Nc1ccc(Cl)c(Cl)c1` (configuration not stated), the TGI in the test with UO-31 renal is 84 µM; in the test with ACHN renal, more than 100 µM; in the test on OVCAR-4 ovarian it was more than 100 µM; in the test with CCRF-CEM leukemia it was more than 100 µM; with U251 CNS, more than 100 µM; in the test on SNB-19 CNS, more than 100 µM. The TGI in the test on IGROV1 ovarian and in the test on UACC-62 melanoma was more than 100 µM throughout.
Turning to `CN(C)c1ccc(-c2nc(N)nc3c2CCCC3)cc1`, the TGI is more than 100 µM with UO-31 renal; 76.9 µM with ACHN renal; more than 100 µM with CCRF-CEM leukemia; more than 100 µM in the test with SK-OV-3 ovarian; more than 100 µM in the test on U251 CNS; more than 100 µM in the test on SNB-19 CNS. The TGI in the test with IGROV1 ovarian and in the test on UACC-62 melanoma was more than 100 µM in each case.
For `CCOC(=O)C(c1ccsc1)P(=O)(OCC)OCC` (configuration not stated), the TGI in the test with UO-31 renal is 28.4 µM; in the test with ACHN renal it was 53 µM; in the test with OVCAR-4 ovarian it was more than 100 µM; in the test with SK-OV-3 ovarian it was 77.2 µM; in the test on U251 CNS, 45.4 µM; with SNB-19 CNS it was 44.4 µM. This compound displayed a TGI in the test on UACC-62 melanoma of 23.9 µM.
Consider `COc1ccc(/C(=N/O)c2cc(F)c(F)c(OC)c2F)cc1O`, for which the GI50 was 1.36 µM in the test with UO-31 renal; 0.94 µM in the test with ACHN renal; 9.1 µM in the test with OVCAR-4 ovarian; 528 nM in the test with CCRF-CEM leukemia; 0.523 µM with SK-OV-3 ovarian; 0.634 µM with U251 CNS. Moreover, the values for the GI50 with SNB-19 CNS and with IGROV1 ovarian were 0.827 µM and 0.815 µM, respectively. Besides, the TGI with UO-31 renal was 90.9 µM; with ACHN renal, more than 100 µM; in the test on OVCAR-4 ovarian, more than 100 µM; in the test on CCRF-CEM leukemia it was 35.2 µM; with SK-OV-3 ovarian, more than 100 µM; with U251 CNS, more than 100 µM. Also, the TGI with SNB-19 CNS and in the test on IGROV1 ovarian was more than 100 µM each time.
Take `Nc1ncnc2c1ncn2C1(CO)OC(CO)C(O)C1O` (configuration not stated): the TGI in the test with ACHN renal, with OVCAR-4 ovarian, with CCRF-CEM leukemia, in the test with SK-OV-3 ovarian, with U251 CNS and in the test with SNB-19 CNS was more than 100 µM throughout.
